Results on 5 molecules are retold here after article PMC6095594, “Pre-clinical evaluation of quinoxaline-derived chalcones in tuberculosis” (PLoS ONE, 2018).

Test [1] has as its system M. tuberculosis drug-resistant clinical isolate CDCT-10. The note with it: cited from earlier work.
Test [2] concerns M. tuberculosis drug-resistant clinical isolate CDCT-16. The note with it: cited from earlier work.
Test [3] concerns M. tuberculosis drug-resistant clinical isolate CDCT-27. The note with it: cited from earlier work.
For test [4], the system named is M. tuberculosis pNIP::InhA(S94A). It counts as cell-based, Mycobacterium tuberculosis.
Test [5] concerns M. tuberculosis drug-resistant clinical isolate CDCT-10. The test is classed as cell-based, Mycobacterium tuberculosis.
Test [6] deals with M. tuberculosis pNIP::KatG(S315T). The test is classed as cell-based, Mycobacterium tuberculosis.
Test [7] deals with M. tuberculosis drug-resistant clinical isolate CDCT-27. The test is classed as cell-based, Mycobacterium tuberculosis.
Test [8] concerns M. tuberculosis drug-resistant clinical isolate CDCT-16. It counts as cell-based, Mycobacterium tuberculosis.

Values after ≈ are worked out from the molar mass of the structure shown. Like-named read-outs stand apart in the source and are kept apart here.

In the case of `CO[C@H]1/C=C/O[C@@]2(C)Oc3c(C)c(O)c4c(O)c(c(/C=N/N5CCN(C)CC5)c(O)c4c3C2=O)NC(=O)/C(C)=C\C=C\[C@H](C)[C@H](O)[C@@H](C)[C@@H](O)[C@@H](C)[C@H](OC(C)=O)[C@@H]1C` [RIF, Rifampicin], the MIC in test [1] is over 100 µg/mL; in test [2], over 100 µg/mL; in test [3], under 0.2 µg/mL.
Regarding `NNC(=O)c1ccncc1` [INH, isoniazid, reference compound], the MIC was 12.5 µg/mL (≈ 91.1 µM) in test [4]; 6.25 µg/mL (≈ 45.6 µM) in test [5]; over 100 µg/mL in test [6]; 25 µg/mL (≈ 182 µM) in test [7]; over 100 µg/mL in test [8].
Take `COc1ccc(OC)c(C(=O)/C=C/c2ccc3nccnc3c2)c1` [N9]: the MIC is 3.13 µg/mL (≈ 9.77 µM) in test [4]; 1.56 µg/mL (≈ 4.87 µM) in test [5]; 1.56 µg/mL (≈ 4.87 µM) in test [6]; 3.13 µg/mL (≈ 9.77 µM) in test [7]; 3.13 µg/mL (≈ 9.77 µM) in test [8].
Take `COc1cccc(C(=O)/C=C/c2ccc3nccnc3c2)c1` [N23]: the MIC in test [4] came out at 2.5 µg/mL (≈ 8.61 µM); in test [5], 2.5 µg/mL (≈ 8.61 µM); in test [6] it was 1.25 µg/mL (≈ 4.31 µM); in test [7], 5 µg/mL (≈ 17.2 µM); in test [8], 5 µg/mL (≈ 17.2 µM).
With `COc1cc(C(=O)/C=C/c2ccc3nccnc3c2)cc(OC)c1OC` [N15], the minimal inhibitory concentration (MIC) in test [4] came out at 3.13 µg/mL (≈ 8.93 µM); in test [5], 3.13 µg/mL (≈ 8.93 µM); in test [6], 3.13 µg/mL (≈ 8.93 µM); in test [7], 6.25 µg/mL (≈ 17.8 µM); in test [8] it was 6.25 µg/mL (≈ 17.8 µM).
